A short description of the data set: Physical and chemical characteristics: solubility in solvents. The class given is physicochemical.

On to “sodium salt of 7-methylthio-3-nitro [1, 2, 4] triazolo [5,1-c] [1, 2, 4] triazin-4 (1H)-one”, for which the solubility in acetone entry (solvent: acetone) is on record as “soluble”. For the same substance, the solubility in chloroform entry (solvent: chloroform) is recorded as “insoluble”. The solubility in dimethylformamide result (solvent: dimethylformamide) is reported as “soluble”. In addition, the solubility in dimethylsulfoxide entry (solvent: dimethylsulfoxide) is “soluble”. The solubility in water entry (solvent: water) is recorded as “soluble”.

The values above are taken from US20190055256A1, “ANTI-VIRAL DRUG” (DORING INTERNATIONAL GMBH, priority 2016, published 2019).
